# Data from US6936629B2, “Compounds and methods for the treatment or prevention of flavivirus infections” (ViroChem Pharma Inc., priority 2001, dated 2005).
# Target: HCV RNA-dependent RNA polymerase (NS5B protein) (Hepatitis C virus genotype 1b, UniProt P26663)
# Test: In vitro HCV RNA-dependent RNA polymerase assay (Assay 1, polyA/oligo dT, 32P-UTP incorporation)
# Assay type: biochemical
# Conditions: purified recombinant HCV NS5B, homopolymeric template/primer polyA/oligo dT; read-out: RNA pol Assay1 IC50
# Experimental: Compounds were evaluated using an in vitro polymerase assay containing purified recombinant HCV RNA-dependent RNA polymerase (NS5B protein). HCV NS5B was expressed in insect cells using a recombinant baculovirus as vector. The experimental procedures used for the cloning, expression and purification of the HCV NS5B protein are described below. Follows, are details of the RNA-dependent RNA polymerase assays used to test the compounds.
# The cDNA encoding the entire NS5B protein of HCV-Bk strain, genotype 1b, was amplified by PCR using the primers NS5Nhe5′ (5′-[…]-3′) (SEQ ID NO: 1) and XhoNS53′ (5′-[…]-3′) (SEQ ID NO: 2) and the plasmid pCD 3.8-9.4 as template (Tomei et al, 1993). NS5Nhe5′ and XhoNS53′ contain two NheI and XhoI sites (underlined sequences), respectively, at their 5′ end. The amplified DNA fragment was cloned in the bacterial expression plasmid pET-21b (Novagen) between the restriction sites NheI and XhoI, to generate the plasmid pET/NS5B. This plasmid was later used as template to […] the NS5B coding region, using the primers NS5B-H9 (5′-[…]-3′) (SEQ ID NO: 3) and NS5B-R4 (5′-[…]-3′) (SEQ ID NO: 4). NS5B-H9 spans a region of 15 nucleotides in the plasmid pET-21b followed by the translation initiation codon (ATG) and […] corresponding to the 5′ end of the NS5B coding region (nt. 7590-7607 in the HCV sequence with the accession number M58335) . NS5B-R4 contains two BamHI sites (underlined) followed by 18 nucleotides corresponding to the region around the stop codon in the HCV genome (nt. 9365-9347). The amplified sequence, of 1.8 kb, was digested with NheI and BamHI and ligated to a predigested pBlueBacII plasmid (Invitrogen) . The resulting recombinant plasmid was designated pBac/NS5B. Sf9 cells were co-transfected with 3 μg of pBac/NS5B, together with 1 μg of linearized baculovirus DNA (Invitrogen), as described in the manufacturer's protocol. Following two rounds of plaque purification, an NS5B-recombinant baculovirus, BacNS5B, was isolated. The presence of the recombinant NS5B protein was determined by western blot analysis (Harlow and Lane, 1988) of BacNS5B-infected Sf9 cells, using a rabbit polyclonal antiserum (anti-NS5B) raised against a His-tagged version of the NS5B protein expressed in E. coil. Infections of Sf9 cells with this plaque purified virus were performed in one-liter spinner flasks at a cell density of 1.2×10^6 cells/ml and a multiplicity of infection of 5.
# Sf9 cells were infected as described above. Sixty hours post-infection, cells were harvested then washed twice with phosphate buffer saline (PBS). Total proteins were solubilized as described in Lohmann et al. (1997) with some modifications. In brief, proteins were extracted in three steps, S1, S2, S3, using lysis buffers (LB) I, LB II and LB III (Lohmann et al, 1997). The composition of LBII was modified to contain 0.1% triton X-100 and 150 mM NaCl to reduce the amount of solubilized NS5B protein at this step. In addition, sonication of cell extracts was avoided throughout the protocol to preserve the integrity of the protein structure.
# Soluble NS5B protein in the S3 fraction was diluted to lower the NaCl concentration to 300 mM, then it incubated batchwise with DEAE sepharose beads (Amersham-Pharmacia) for 2 hrs at 4° C., as described by Behrens et al. (1996). Unbound material was cleared by centrifugation for 15 min at 4° C., at 25000 rpm using a SW41 rotor (Beckman). The supernatant was further diluted to lower the NaCl concentration to 200 mM and subsequently loaded, with a flow rate of 1 ml/min, on a 5 ml HiTrap® heparin column (Amersham-Pharmacia) connected to an FPLC® system (Amersham-Pharmacia). Bound proteins were eluted in 1 ml fractions, using a continuous NaCl gradient of 0.2 to 1 M, over a 25 ml volume. […]
# Chain of HCV RNA-dependent RNA polymerase (NS5B protein) (P26663 2420-3010 limits assumed): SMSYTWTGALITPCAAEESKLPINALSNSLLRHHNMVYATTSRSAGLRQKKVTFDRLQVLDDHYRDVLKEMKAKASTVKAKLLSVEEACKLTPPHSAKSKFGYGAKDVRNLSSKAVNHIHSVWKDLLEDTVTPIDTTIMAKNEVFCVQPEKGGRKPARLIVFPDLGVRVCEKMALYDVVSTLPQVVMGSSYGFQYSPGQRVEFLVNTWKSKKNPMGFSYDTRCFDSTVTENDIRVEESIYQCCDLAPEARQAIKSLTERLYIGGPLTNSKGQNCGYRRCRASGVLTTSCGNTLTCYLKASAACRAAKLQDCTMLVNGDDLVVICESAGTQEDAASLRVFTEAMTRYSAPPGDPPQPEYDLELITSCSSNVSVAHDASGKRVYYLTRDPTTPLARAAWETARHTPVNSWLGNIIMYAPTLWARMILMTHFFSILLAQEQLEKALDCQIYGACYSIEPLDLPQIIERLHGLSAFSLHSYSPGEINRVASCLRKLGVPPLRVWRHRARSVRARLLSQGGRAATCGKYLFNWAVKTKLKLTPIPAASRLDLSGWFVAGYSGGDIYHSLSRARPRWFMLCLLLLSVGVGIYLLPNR
row,SMILES,IC50 [µM]
1,"CC(C)N(C(=O)c1ccc(Cl)cc1Cl)c1nc(-c2ccccc2)sc1C(=O)O [Compound #3, 4-[(2,4-Dichloro-benzoyl)-isopropyl-amino]-2-phenyl-thiazole-5-carboxylic acid]",< 5
2,"Cc1ccc(C(=O)N(c2nc(-c3ccccc3)sc2C(=O)O)C(C)C)cc1 [Compound #6, 4-[Isopropyl-(4-methyl-benzoyl)-amino]-2-phenyl-thiazole-5-carboxylic acid]",< 5
3,"Cc1ccccc1S(=O)(=O)Nc1nc(-c2ccccc2)sc1C(=O)O [Compound #5, 2-Phenyl-4-(toluene-2-sulfonylamino)-thiazole-5-carboxylic acid]",5 to 20
4,"Cc1ccc(S(=O)(=O)Nc2nc(-c3ccccc3)sc2C(=O)O)c(C)c1 [Compound #9, 4-(2,4-Dimethyl-benzenesulfonylamino)-2-phenyl-thiazole-5-carboxylic acid]",5 to 20
5,"CN(C(=O)c1ccc(Cl)cc1Cl)c1nc(-c2ccccc2)sc1C(=O)O [Compound #2, 4-[(2,4-Dichloro-benzoyl)-methyl-amino]-2-phenyl-thiazole-5-carboxylic acid]",< 5
6,"Cc1ccc(S(=O)(=O)Nc2nc(-c3ccccc3)sc2C(=O)O)cc1 [Compound #10, 2-Phenyl-4-(toluene-4-sulfonylamino)-thiazole-5-carboxylic acid]",> 20
7,"Cc1ccc(C(=O)N(C)c2nc(-c3ccccc3)sc2C(=O)O)cc1 [Compound #1, 4-[Methyl-(4-methyl-benzoyl)-amino]-2-phenyl-thiazole-5-carboxylic acid]",< 5
8,"Cc1ccc(C(=O)Nc2nc(-c3ccccc3)sc2C(=O)O)c(C)c1 [Compound #8, 4-(2,4-Dimethyl-benzoylamino)-2-phenyl-thiazole-5-carboxylic acid]",> 20
9,"CCN(C(=O)c1ccc(Cl)cc1Cl)c1nc(-c2ccccc2)sc1C(=O)O [Compound #4, 4-[(2,4-Dichloro-benzoyl)-ethyl-amino]-2-phenyl-thiazole-5-carboxylic acid]",< 5
10,"O=C(Nc1nc(-c2ccccc2)sc1C(=O)O)c1ccc(Cl)cc1 [Compound #7, 4-(4-Chloro-benzoylamino)-2-phenyl-thiazole-5-carboxylic acid]",> 20

# Further lines, results first:
row,IC50 [µM],SMILES
1,5 to 20,"O=C(Nc1nc(-c2ccccc2)sc1C(=O)O)c1ccc(Cl)cc1Cl [Compound #11, 4-(2,4-Dichloro-benzoylamino)-2-phenyl-thiazole-5-carboxylic acid]"
2,5 to 20,"Cc1ccc(C(=O)N(C)c2nc(N3CCOCC3)sc2C(=O)O)c(C)c1 [Compound #16, 4-[(2,4-DIMETHYL-BENZOYL)-METHYL-AMINO]-2-MORPHOLIN-4-YL-THIAZOLE-5-CARBOXYLIC ACID]"
3,> 20,"Cc1cccc(C(=O)Nc2nc(-c3ccccc3)sc2C(=O)O)c1 [Compound #12, 4-(3-Methyl-benzoylamino)-2-phenyl-thiazole-5-carboxylic acid]"
4,5 to 20,O=C(Nc1nc(-c2ccccc2)sc1C(=O)O)c1ccc(Cl)cc1 [Compound #15]
5,< 5,"CN(C(=O)c1ccc(Cl)cc1)c1nc(-c2ccccc2)sc1C(=O)O [Compound #14, 4-[(4-Chloro-benzoyl)-methyl-amino]-2-phenyl-thiazole-5-carboxylic acid]"
6,5 to 20,"CN(C(=O)c1ccccc1Cl)c1nc(-c2ccccc2)sc1C(=O)O [Compound #13, 4-[(2-Chloro-benzoyl)-methyl-amino]-2-phenyl-thiazole-5-carboxylic acid]"
